For three compounds, inhibition in vivo results are on record in ChEMBL document CHEMBL1147368, “Constituents of Fevillea cordifolia: New Norcucurbitacin and Cucurbitacin Glycosides” (1993).

A word on the inhibition in vivo: it is the drop in the measured response relative to a control, in per cent.

Common to all, as to format: functional
For test [1], the system named is Rattus norvegicus. Description: Antiinflammatory activity in rat assessed as inhibition of carrageenan-induced paw edema at 0.125 mg/kg, po. Background: In the carrageenan paw model, swelling and tenderness develop within hours.
For test [2], the system named is Rattus norvegicus. The test is described as follows: Antiinflammatory activity in rat assessed as inhibition of carrageenan-induced paw edema at 100 mg/kg, po.
Test [3] relates to Rattus norvegicus. Description: Antiinflammatory activity in rat assessed as inhibition of carrageenan-induced paw edema at 2 mg/kg, po.

In the case of `C[C@H]1C[C@H]2[C@@H]3CCC4=CC(=O)C=C[C@]4(C)[C@@]3(F)[C@@H](O)C[C@]2(C)[C@@]1(O)C(=O)CO` [BETAMETHASONE], the inhibition in vivo at 0.125 mg/kg with Rattus norvegicus [1] turned out to be 63%.

Regarding `CC(=O)Oc1ccccc1C(=O)O` [ASPIRIN], the inhibition in vivo at 100 mg/kg in the test on Rattus norvegicus [2] is 44%.

Take `COc1ccc2c(c1)c(CC(=O)O)c(C)n2C(=O)c1ccc(Cl)cc1` [INDOMETHACIN]: the inhibition in vivo at 2 mg/kg in the test on Rattus norvegicus [3] was 47%.
